The record followed here is patent US20040248913A1, “(Pyridinyl and pyrimidyl) trienoic acid derivatives as retinoid x receptor modulators” (priority 2001, published 2004).

For one series, the system named is RXRα:RAR heterodimer. In words: RXR:RAR heterodimer cotransfection assay in CV-1 cells. It is filed as cell-based, human. The conditions noted are these: alone. The source says: In the co-transfection assay, cloned cDNA for one or more IRs (e.g., human RARα, RXRα, or PPARγ), alone or in combination (i.e. for heterodimer assays) under the control of a constitutive promoter (e.g., the SV 40, RSV or CMV promoter) is introduced by transfection (a procedure to introduce exogenous genes into cells) into a background cell substantially devoid of endogenous IRs. These introduced gene(s) direct the recipient cells to make the IR protein(s) of interest. A further gene is also introduced (co-transfected) into the same cells in conjunction with the IR gene(s). This further gene, comprising the cDNA for a reporter protein, such as firefly luciferase (LUC), controlled by an appropriate hormone responsive promoter containing a hormone response element (HRE). This reporter plasmid functions as a reporter for the transcriptional-modulating activity of the target IR(s). Thus, the reporter acts as a surrogate for the products (mRNA then protein) normally expressed by a gene under control of the target receptor(s) and their native hormone(s).
Compounds of the present invention were also tested for the ability to synergize with an RAR or PPARγ agonist in the context of an RXR heterodimer. […] Efficacy of the compounds of the present invention in the agonist and synergy assays was calculated as the maximum response obtained over the range of the dose response curve relative to the maximum response obtained by the reference agonist. Antagonist efficacy was determined as a function (%) of maximal inhibition.
RAR suppresses RXR ligand binding and transactivation of typical RXR agonists via allosteric interactions. […] However, when RAR is occupied, typical RXR agonists activate the heterodimer. […] To examine the effects of the compounds of the present invention on the transcriptional properties of the RXR:RAR heterodimer, a heterodimer cotransfection assay as described above was employed.

For series [1], the system named is mice transgenic for the human apolipoprotein A-I gene. The series is described as follows: Transgenic mice carrying the human apo A-I gene. It is filed as in vivo, mouse. From the text:
Mice transgenic for the human apolipoprotein A-I gene (obtained from Jackson Laboratory) are used to evaluate PPARγ mediated effects on high density lipoprotein (HDL) cholesterol. The mice are handled as described above for db/db mice, except that they are fed Purina 5001.

The subject of the next series is rodent models of NIDDM. In words: Rodent models of NIDDM / Type II Diabetes. It is filed as in vivo. From the text:
(§1) Rodents that are genetically defective in the leptin pathway are commonly used as animal models of non-insulin dependant diabetes mellitus (NIDDM). db/db mice and ZDF rats develop frank diabetes that progresses to include β-cell failure and the accompanying precipitous drop in plasma insulin levels. […] All three rodent models were used to examine the efficacy of oral dosing with compounds of the invention on diabetes, insulin sensitivity, food consumption and body weight gain.
(§2) Mice (obtained from Jackson Laboratory), ZDF rats (obtained from Genetic Models Inc.) and fa/fa rats (obtained from either Charles River, or Harlan) are maintained on 12-hour light/dark cycle. Mice (age 28-42 days) are caged in groups of 5-6. Rats (age 7 weeks) are housed individually. All animals are allowed ad libitum access to water and food (Purina 5015 for mice and 5008 for rats). Compounds are administered at the specified doses by oral gavage on the morning of each day of any experiment. Blood samples are obtained 3 hours after dosing from fed animals under anesthesia and collected into heparinized capillary tubes from the tail vein.
On the other hand, full antagonists have no effect on glucose, triglycerides or the thyroid status in these same model systems. We have identified a specific subset of rexinoids that maintain the desirable insulin sensitizing activity and eliminate both the suppression of the thyroid axis and triglyceride elevations. These compounds are heterodimer selective modulators of RXR activity. They bind to RXR with high affinity (generally Ki<50 nM) and produce potent synergistic activation of the RXR:PPARγ heterodimer. This synergistic activation of PPARγ in vitro is presumably a major determinant of the antidiabetic efficacy of compounds in vivo.

For a further series, the system named is db/db mice. In words: db/db mice, daily oral gavage. The conditions noted are these: 7 week old db/db mice. It counts as in vivo, mouse.
Source text: as §1, §2

With `CC1=C(/C=C/C(C)=C/C=C/C(C)=C/C(=O)O)C(C)(C)CCC1` [ATRA, all-trans retinoic acid, reference compound], the “RXR:RAR agonist activity / transactivation alone (in words)” value in the series on RXRα:RAR heterodimer is recorded as “strongly transactivate”.

As to `Cc1cc2c(cc1C1(c3ccc(C(=O)O)cn3)CC1)C(C)(C)CCC2(C)C` [LG100268], the Triglycerides entry in series [1] is “raises triglycerides”. In the series with rodent models of NIDDM, the Blood glucose levels entry is “lower blood glucose levels”, the Insulin sensitizing activity entry was “efficacious insulin sensitizers”, the Thyroid hormone axis entry is “suppress the thyroid hormone axis” and the Triglycerides entry is recorded as “raise triglycerides”.

On to `C/C(=C\c1ccc(C(=O)O)cc1)c1ccc2c(c1)C(C)(C)CCC2(C)C` [TTNPB, (E)-4-[2-(5,6,7,8-tetrahydro-5,5,8,8-tetramethyl-2-naphthalenyl)-1-propenyl]benzoic acid, reference compound], for which, in the series with RXRα:RAR heterodimer, the “RXR:RAR agonist activity / transactivation alone (in words)” value is on record as “strongly transactivate”.

`CN(C)C(=N)N=C(N)N` [metformin]: the Plasma glucose entry with db/db mice (300 mg/kg by daily oral gavage) was “lowers plasma glucose”. Further, in the series on db/db mice (300 mg/kg daily, 3 weeks subsequent to first week), the “Efficacy on plasma glucose over time” value was “efficacy of metformin decreases”.
